The test system of one assay is THP-1. Kind of assay: Antiinflammatory activity in human THP1 cells. Type of assay: functional, cell-based.
The test system of assay [1] is PBMC. Kind of assay: Inhibition of LPS-stimulated IL-6 production in human PBMC. The class given is functional, cell-based.
Assay [2] relates to PBMC. As to the kind of experiment: Inhibition of LPS-stimulated TNFalpha production in human PBMC. Type of assay: functional, cell-based.
The next assay has as its system HepG2. As to the kind of experiment: Upregulation of ApoA1 expression in human HepG2 cells assessed as concentration required to increase 70% of luciferase activity after 18 hrs by luciferase reporter gene assay. Type of assay: functional. (In general: Reporter assays use an easily measured gene product as a stand-in for the process of interest.)
The next assay deals with Cytochrome P450 2C9 (Homo sapiens, UniProt P11712). Kind of assay: Inhibition of CYP2C9. Type of assay: ADME.
In the next assay the target is Cytochrome P450 3A4 (Homo sapiens, UniProt P08684). Kind of assay: Inhibition of CYP3A4. Type of assay: ADME.

Calls of active or inactive are those of the source. The rule behind the calls is not given here.

Cytochrome P450 2C9, sequence (P11712 whole entry): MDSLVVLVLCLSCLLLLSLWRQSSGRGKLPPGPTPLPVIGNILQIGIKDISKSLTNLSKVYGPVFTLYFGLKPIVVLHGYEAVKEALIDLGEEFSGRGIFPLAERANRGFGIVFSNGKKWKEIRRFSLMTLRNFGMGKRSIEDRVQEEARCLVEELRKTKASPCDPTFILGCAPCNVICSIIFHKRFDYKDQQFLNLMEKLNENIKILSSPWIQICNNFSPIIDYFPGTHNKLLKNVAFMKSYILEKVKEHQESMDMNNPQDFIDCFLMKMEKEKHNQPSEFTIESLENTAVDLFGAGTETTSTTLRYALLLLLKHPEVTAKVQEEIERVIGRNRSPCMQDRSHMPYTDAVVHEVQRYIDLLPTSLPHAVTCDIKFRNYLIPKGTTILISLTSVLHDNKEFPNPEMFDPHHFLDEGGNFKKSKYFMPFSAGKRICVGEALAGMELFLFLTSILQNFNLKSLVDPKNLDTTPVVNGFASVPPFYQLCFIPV
Cytochrome P450 3A4, sequence (P08684 whole entry): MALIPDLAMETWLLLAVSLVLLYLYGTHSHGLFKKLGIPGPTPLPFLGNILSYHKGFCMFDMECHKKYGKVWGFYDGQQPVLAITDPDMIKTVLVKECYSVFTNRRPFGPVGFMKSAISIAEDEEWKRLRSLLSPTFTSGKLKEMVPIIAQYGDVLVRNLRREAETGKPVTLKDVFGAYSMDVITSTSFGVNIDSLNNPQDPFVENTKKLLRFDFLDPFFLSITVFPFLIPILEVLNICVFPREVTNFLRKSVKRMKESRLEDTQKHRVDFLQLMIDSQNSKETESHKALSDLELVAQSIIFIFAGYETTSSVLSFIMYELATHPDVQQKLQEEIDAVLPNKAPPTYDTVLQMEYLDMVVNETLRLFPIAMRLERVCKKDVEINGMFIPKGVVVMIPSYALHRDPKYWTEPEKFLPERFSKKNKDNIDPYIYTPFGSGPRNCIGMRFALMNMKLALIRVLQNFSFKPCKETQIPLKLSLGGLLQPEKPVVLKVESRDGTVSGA

As for `Cc1noc(C)c1-c1ccc2c(Nc3ccccc3)c(C(=O)NCc3ccccc3)cnc2c1`, the result in the assay on THP-1, in the assay with PBMC [1] and in the assay on PBMC [2] was Active. In addition, the EC170 in the assay on HepG2 stood at 1.44 µM.

Consider `COc1cc2c(cc1-c1c(C)noc1C)ncc1[nH]c(=O)n([C@@H](C)c3ccccc3)c12`, for which the outcome in the assay on THP-1, in the assay on PBMC [1] and with PBMC [2] was Active. Besides, in the assay with HepG2, the EC170 was found to be 0.47 µM.

Turning to `Cc1ccccc1Nc1c(C(N)=O)cnc2cc(-c3c(C)noc3C)ccc12`, the result in the assay on THP-1, with PBMC [1] and with PBMC [2] was Active. Further, the EC170 with HepG2 came out at 0.44 µM.

For the molecule `CC[C@H](c1ccccc1)n1c(=O)[nH]c2cnc3cc(-c4c(C)noc4C)c(OC)cc3c21`, the result with THP-1, with PBMC [1] and in the assay with PBMC [2] was Active. Moreover, the IC50 against Cytochrome P450 2C9 and against Cytochrome P450 3A4 was 2.4 µM throughout. Further, the EC170 in the assay on HepG2 was found to be 0.03 µM.

Regarding `Cc1noc(C)c1-c1ccc2c(Nc3ccccc3C(C)(C)C)c(C(N)=O)cnc2c1`, the outcome in the assay with THP-1, in the assay on PBMC [1] and in the assay on PBMC [2] was Active. The IC50 (usually the midpoint of a concentration-inhibition curve) against Cytochrome P450 2C9 was 0.7 µM; at Cytochrome P450 3A4 it was 2 µM. In addition, the EC170 in the assay on HepG2 is 0.63 µM.

Consider `Cc1cccc(Nc2c(C(N)=O)cnc3cc(-c4c(C)noc4C)ccc23)c1`, for which the result in the assay on THP-1, in the assay on PBMC [1] and with PBMC [2] was Active. For the same molecule, the EC170 in the assay with HepG2 was found to be 0.6 µM.

Take `COc1cc2c(Nc3ccccc3CCN3CCOCC3)c(C(N)=O)cnc2cc1-c1c(C)noc1C`: the outcome in the assay on THP-1, in the assay on PBMC [1] and with PBMC [2] was Active. The IC50 at Cytochrome P450 2C9 is 2.2 µM; against Cytochrome P450 3A4 it was 1.9 µM. Also, in the assay on HepG2, the EC170 amounted to 0.09 µM.

Regarding `COc1cc2c(cc1-c1c(C)noc1C)ncc1[nH]c(=O)n(-c3ccccc3C(C)(C)C)c12`, the result with THP-1, in the assay with PBMC [1] and with PBMC [2] was Active. The IC50 at Cytochrome P450 2C9 stood at 0.9 µM; against Cytochrome P450 3A4, 1.7 µM. Further, the EC170 in the assay with HepG2 stood at 0.05 µM.

As for `COc1cc2c(Nc3ccccc3F)c(C(N)=O)cnc2cc1-c1c(C)noc1C`, the outcome in the assay with THP-1, with PBMC [1] and in the assay on PBMC [2] was Active. Also, the IC50 is 0.6 µM against Cytochrome P450 2C9 and 4.7 µM at Cytochrome P450 3A4. In the assay with HepG2, the EC170 is 0.3 µM.

In the case of `Cc1noc(C)c1-c1ccc2c(Nc3ccccc3)c(C(=O)N(C)C)cnc2c1`, the outcome in the assay on THP-1, with PBMC [1] and with PBMC [2] was Active. Further, the EC170 in the assay on HepG2 was 7.08 µM.

As for `COc1cc2c(cc1-c1c(C)noc1C)ncc1[nH]c(=O)n(-c3ccccc3OC(F)(F)F)c12`, the result in the assay on THP-1, in the assay on PBMC [1] and in the assay with PBMC [2] was Active. The molecule also showed an IC50 against Cytochrome P450 2C9 of 2.3 µM. Also, the EC170 in the assay on HepG2 stood at 0.09 µM.

In the case of `COc1cc2c(cc1-c1c(C)noc1C)ncc1[nH]c(=O)n(Cc3ccccc3)c12`, the outcome in the assay with THP-1, in the assay with PBMC [1] and in the assay with PBMC [2] was Active. In addition, at Cytochrome P450 2C9, half-maximal inhibition (IC50) was put at 1.2 µM. In addition, in the assay with HepG2, the EC170 was determined as 0.06 µM.

`COc1cc2c(NC3CCCCC3)c(C(N)=O)cnc2cc1-c1c(C)noc1C`: the outcome in the assay with THP-1, with PBMC [1] and in the assay on PBMC [2] was Active. Further, the EC170 in the assay with HepG2 was found to be 0.45 µM.

On to `COc1cc2c(NCc3ccccn3)c(C(N)=O)cnc2cc1-c1c(C)noc1C`, for which the result in the assay with THP-1, with PBMC [1] and in the assay with PBMC [2] was Active. Further, the EC170 with HepG2 was 2.57 µM.

Regarding `COc1cc2c(cc1-c1c(C)noc1C)ncc1[nH]c(=O)n(-c3ccccc3F)c12`, the result in the assay on THP-1, in the assay with PBMC [1] and in the assay with PBMC [2] was Active. The EC170 in the assay on HepG2 amounted to 0.76 µM.

In the case of `COc1cc2c(cc1-c1c(C)noc1C)ncc1[nH]c(=O)n([C@H](C)c3ccccc3)c12`, the result in the assay with THP-1, with PBMC [1] and with PBMC [2] was Active. In addition, the IC50 stood at 1 µM at Cytochrome P450 2C9 and 1.5 µM at Cytochrome P450 3A4. Also, the EC170 with HepG2 turned out to be 0.01 µM.

`COc1ccccc1Nc1c(C(N)=O)cnc2cc(-c3c(C)noc3C)ccc12`: the outcome in the assay with THP-1, in the assay on PBMC [1] and in the assay on PBMC [2] was Active. Moreover, the EC170 with HepG2 was 0.39 µM.

For `Cc1noc(C)c1-c1ccc2c(Nc3ccccc3C(C)(C)C)c(C(=O)O)cnc2c1`, the result in the assay with THP-1, with PBMC [1] and in the assay on PBMC [2] was Active. For the same molecule, the IC50 at Cytochrome P450 2C9 worked out at 10 µM; on Cytochrome P450 3A4, 13 µM. Moreover, the EC170 in the assay with HepG2 came to 0.32 µM.

As to `Cc1noc(C)c1-c1ccc2c(Nc3ccccc3C#N)c(C(N)=O)cnc2c1`, the outcome in the assay with THP-1, in the assay with PBMC [1] and in the assay on PBMC [2] was Active. In addition, in the assay with HepG2, the EC170 stood at 1.02 µM.

`COc1cc2c(cc1-c1c(C)noc1C)ncc1[nH]c(=O)n(C(C)c3ccccc3)c12` (racemic): the result in the assay on THP-1, in the assay on PBMC [1] and in the assay with PBMC [2] was Active. Besides, the values for the IC50 on Cytochrome P450 2C9 and on Cytochrome P450 3A4 were 1.3 µM and 2 µM, respectively. Further, the EC170 with HepG2 stood at 0.03 µM.

With `Cc1noc(C)c1-c1ccc2c(Nc3ccccc3)ccnc2c1`, the outcome in the assay on THP-1, with PBMC [1] and in the assay with PBMC [2] was Active. The EC170 in the assay with HepG2 is 4.27 µM.

Regarding `COc1cc2c(cc1-c1c(C)noc1C)ncc1[nH]c(=O)n(Cc3ccccn3)c12`, the result with THP-1, in the assay with PBMC [1] and in the assay with PBMC [2] was Active. Also, the IC50 at Cytochrome P450 3A4 came out at 12.9 µM.

In the case of `COc1cc2c(Nc3ccccc3C(=O)N3CCCCC3)c(C(N)=O)cnc2cc1-c1c(C)noc1C`, the outcome in the assay with THP-1, in the assay with PBMC [1] and with PBMC [2] was Active. Further, the IC50 is 8.5 µM on Cytochrome P450 2C9 and 1.8 µM on Cytochrome P450 3A4. Moreover, the EC170 with HepG2 came out at 0.13 µM.

On to `CCNC(=O)C[C@@H]1N=C(c2ccc(Cl)cc2)c2cc(OC)ccc2-n2c(C)nnc21` [MOLIBRESIB], for which the EC170 in the assay with HepG2 came out at 0.2 µM.

`Cc1noc(C)c1-c1ccc2c(Nc3ccccc3)c(C(N)=O)cnc2c1`: the outcome with THP-1, in the assay on PBMC [1] and in the assay with PBMC [2] was Active. In addition, the IC50 was found to be 2.1 µM on Cytochrome P450 2C9 and 17 µM against Cytochrome P450 3A4. The EC170 in the assay on HepG2 came to 0.5 µM.

As for `Cc1noc(C)c1-c1ccc2c(Nc3ccccc3C(C)(C)C)c(C(=O)O)cnc2c1C`, the outcome with THP-1, with PBMC [1] and in the assay on PBMC [2] was Active. Further, the EC170 in the assay on HepG2 amounted to 1.05 µM.

On to `COc1cc2c(Nc3ccccc3N3CCOCC3)c(C(N)=O)cnc2cc1-c1c(C)noc1C`, for which the result with THP-1, with PBMC [1] and in the assay on PBMC [2] was Active. The figures for the 50% inhibitory concentration (IC50) on Cytochrome P450 2C9 and at Cytochrome P450 3A4 were 5.1 µM and 1.5 µM, respectively. For the same molecule, the EC170 in the assay on HepG2 is 0.09 µM.

For `COc1cc2c(Nc3ccccc3C(C)(C)C)c(C(=O)O)cnc2cc1-c1c(C)noc1C`, the outcome in the assay with THP-1, in the assay on PBMC [1] and with PBMC [2] was Active. Moreover, in the assay on HepG2, the EC170 is 0.28 µM.

In the case of `COc1cc2c(NCc3ccccc3)c(C(N)=O)cnc2cc1-c1c(C)noc1C`, the result with THP-1, with PBMC [1] and with PBMC [2] was Active. For the same molecule, the EC170 in the assay on HepG2 was 1.07 µM.

For `Cc1ccc(Nc2c(C(N)=O)cnc3cc(-c4c(C)noc4C)ccc23)cc1`, the result in the assay with THP-1, with PBMC [1] and with PBMC [2] was Active. The EC170 with HepG2 turned out to be 1.05 µM.

On to `Cc1noc(C)c1-c1ccc2c(Nc3ccccc3Cl)c(C(N)=O)cnc2c1`, for which the result in the assay with THP-1, in the assay with PBMC [1] and in the assay on PBMC [2] was Active. The EC170 with HepG2 worked out at 1 µM.

For `Cc1noc(C)c1-c1ccc2c(Nc3ccccc3)c(C(=O)O)cnc2c1`, the result with THP-1, with PBMC [1] and in the assay with PBMC [2] was Active. The IC50 on Cytochrome P450 2C9 and at Cytochrome P450 3A4 was above 33 µM each time. The EC170 in the assay on HepG2 was 1.74 µM.

As to `Cc1cc2c(Nc3ccccc3C(C)(C)C)c(C(=O)O)cnc2cc1-c1c(C)noc1C`, the result in the assay with THP-1, with PBMC [1] and with PBMC [2] was Active. In addition, in the assay with HepG2, the EC170 is 1.99 µM.

Consider `Cc1noc(C)c1-c1ccc2c(Nc3ccccc3F)c(C(N)=O)cnc2c1`, for which the outcome with THP-1, with PBMC [1] and with PBMC [2] was Active. In addition, the EC170 in the assay with HepG2 worked out at 0.5 µM.

For the molecule `COc1cc2c(Nc3ccccc3C(=O)c3ccccn3)c(C(N)=O)cnc2cc1-c1c(C)noc1C`, the result in the assay on THP-1, in the assay with PBMC [1] and in the assay with PBMC [2] was Active. The IC50 at Cytochrome P450 2C9 is 9.9 µM; at Cytochrome P450 3A4, 3.1 µM. In addition, in the assay with HepG2, the EC170 amounted to 0.2 µM.

The values are drawn from ChEMBL document CHEMBL2016443, “From ApoA1 upregulation to BET family bromodomain inhibition: discovery of I-BET151” (Bioorg Med Chem Lett, 2012).
